From the supplement of paper PMC7287046

Legend:
Conditions in all cases: exposure time: 72 h
[1] = system: AM-38; assay: HSA synergy score (Combenefit); higher = more synergy
Procedure: (§1)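 The same 6x6 dose matrices of drug pairs on glioma cell lines (72 h, CellTiter-Glo viability normalised to DMSO, triplicate) were scored with Combenefit. The Loewe, Bliss and HSA synergy scores are given; paper thresholds are Loewe 7.8 and Bliss 2.5.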

[2] = system: KNS-42; assay: as above
Procedure: as §1

[3] = system: SF268; assay: as above
Procedure: as §1

[4] = system: SF539; assay: as above
Procedure: as §1

[5] = system: SNB75; assay: as above
Procedure: as §1

[6] = system: T98G; assay: as above
Procedure: as §1

[7] = system: U118; assay: as above
Procedure: as §1

[8] = system: U251; assay: as above
Procedure: as §1

[9] = system: U87; assay: as above
Procedure: as §1

[10] = system: AM38; assay: Chou-Talalay combination index (dimensionless); higher = less synergy (more antagonism)
Procedure: (§2)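 Glioma cell lines were treated for 72 h with a 6x6 matrix of two drugs, each in twofold dilutions with the top dose at the single-drug IC50. Viability was read by CellTiter-Glo and normalised to DMSO controls, in triplicate. The Chou-Talalay combination index was computed by the median effect principle; CI < 0.8 means synergy.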

[11] = system: KNS42; assay: as above
Procedure: as §2

[12] = system: SF268; assay: as above
Procedure: as §2

[13] = system: SF539; assay: as above
Procedure: as §2

[14] = system: SNB75; assay: as above
Procedure: as §2

[15] = system: T98; assay: as above
Procedure: as §2

[16] = system: U118; assay: as above
Procedure: as §2

[17] = system: U251; assay: as above
Procedure: as §2

[18] = system: U87; assay: as above
Procedure: as §2

[19] = system: AM-38; assay: Bliss synergy score (Combenefit); higher = more synergy; extreme values may be limits of the assay
Procedure: as §1

[20] = system: KNS-42; assay: as above
Procedure: as §1

[21] = system: SF268; assay: as above
Procedure: as §1

[22] = system: SF539; assay: as above
Procedure: as §1

[23] = system: SNB75; assay: as above
Procedure: as §1

[24] = system: T98G; assay: as above
Procedure: as §1

[25] = system: U118; assay: as above
Procedure: as §1

[26] = system: U251; assay: as above
Procedure: as §1

[27] = system: U87; assay: as above
Procedure: as §1

[28] = system: AM-38; assay: Loewe synergy score (Combenefit); higher = more synergy; extreme values may be limits of the assay
Procedure: as §1

[29] = system: KNS-42; assay: as above
Procedure: as §1

[30] = system: SF268; assay: as above
Procedure: as §1

[31] = system: SF539; assay: as above
Procedure: as §1

[32] = system: SNB75; assay: as above
Procedure: as §1

[33] = system: T98G; assay: as above
Procedure: as §1

[34] = system: U118; assay: as above
Procedure: as §1

[35] = system: U251; assay: as above
Procedure: as §1

[36] = system: U87; assay: as above
Procedure: as §1

Structure (SMILES) | HSA synergy score [1] | HSA synergy score [2] | HSA synergy score [3] | HSA synergy score [4] | HSA synergy score [5] | HSA synergy score [6] | HSA synergy score [7] | HSA synergy score [8] | HSA synergy score [9] | Chou-Talalay combination index [10] | Chou-Talalay combination index [11] | Chou-Talalay combination index [12] | Chou-Talalay combination index [13] | Chou-Talalay combination index [14] | Chou-Talalay combination index [15] | Chou-Talalay combination index [16] | Chou-Talalay combination index [17] | Chou-Talalay combination index [18] | Bliss synergy score [19] | Bliss synergy score [20] | Bliss synergy score [21] | Bliss synergy score [22] | Bliss synergy score [23] | Bliss synergy score [24] | Bliss synergy score [25] | Bliss synergy score [26] | Bliss synergy score [27] | Loewe synergy score [28] | Loewe synergy score [29] | Loewe synergy score [30] | Loewe synergy score [31] | Loewe synergy score [32] | Loewe synergy score [33] | Loewe synergy score [34] | Loewe synergy score [35] | Loewe synergy score [36]
CC(=O)O[C@@]12CO[C@@H]1C[C@H](O)[C@@]1(C)C(=O)[C@H](O)C3=C(C)[C@@H](OC(=O)[C@H](O)[C@@H](NC(=O)OC(C)(C)C)c4ccccc4)C[C@@](O)([C@@H](OC(=O)c4ccccc4)[C@H]21)C3(C)C [Docetaxel] + O=c1[nH]c2ccccc2n1C1CCN(Cc2ccc(-c3[nH]c4cc5ncnc5cc4nc3-c3ccccc3)cc2)CC1 [Akt inhibitor VIII] | 11 | 15.2 | 11.6 | 2.57 | 6.81 | 0 | 8.23 | 0.629 | 4.37 | 0.894 | 0.838 | 0.885 | 0.939 | 0.796 | 0.84 | 0.9 | 0.933 | 0.625 | 0.132 | 1.6 | 1.32 | 0.217 | 0.989 | 0 | 5.46 | 0.156 | 1.56 | 5.53 | 10.8 | 3.03 | 1.09 | 0.96 | 0 | 3.76 | 0 | 2.83
CCCCCCCCCCCC1=C(O)C(=O)C=C(O)C1=O [Embelin] + N#CC(c1ccnc(NCCc2cccnc2)n1)c1nc2ccccc2s1 [AS601245] | 1.14 | 12.6 | 5.6 | 1.24 | 2.04 | 11.9 | 4.61 | 1.11 | 10.3 | 0.867 | 0.78 | 0.923 | 0.84 | 0.365 | 0.365 | 0.639 | 0.88 | 0.0258 | 0.346 | 7.8 | 1.91 | 0.103 | 0.833 | 6.12 | 2.98 | 1.11 | 9.51 | 0 | 2.73 | 0.00767 | 0.787 | 0.557 | 6.59 | 4.39 | 1.11 | 0.927
CCCCCCCCCCCC1=C(O)C(=O)C=C(O)C1=O [Embelin] + O=c1[nH]c2ccccc2n1C1CCN(Cc2ccc(-c3[nH]c4cc5ncnc5cc4nc3-c3ccccc3)cc2)CC1 [Akt inhibitor VIII] | 2.45 | 21.8 | 6.9 | 2.02 | 5.56 | 5.06 | 2.72 | 0.813 | 3.6 | 0.773 | 0.589 | 0.946 | 1.03 | 0.773 | 0.226 | 0.946 | 0.839 | 0.641 | 1.12 | 10.1 | 2.64 | 0.0542 | 1.95 | 1.2 | 1.02 | 0.813 | 3.16 | 0.351 | 21.4 | 1.14 | 0.853 | 1.11 | 3.51 | 1.18 | 0.813 | 1.72
C#Cc1cccc(Nc2ncnc3cc(OCCOC)c(OCCOC)cc23)c1 [Erlotinib] + CCCCCCCCCCCC1=C(O)C(=O)C=C(O)C1=O [Embelin] | 0 | 10.4 | 4.82 | 8.08 | 6.85 | 1.02 | 2.42 | 14.6 | 0 | 1.08 | 0.797 | 0.795 | 0.728 | 0.836 | 0.961 | 0.853 | 0.632 | 1.14 | 0 | 5.81 | 0.32 | 2.46 | 0.771 | 0 | 0.526 | 10.1 | 0 | 0 | 5.93 | 1.59 | 1.08 | 1.7 | 0.68 | 2.33 | 10.4 | 0
